Laboratory results published in patent US4820694A, “Modifications of 3-O-demethylmycinose in macrocin and lactenocin” (priority 1986, dated 1989).
In brackets after ≈: the same amount, converted by molar mass. Read-outs that look alike come from different tables or passages of the source.

Key:
[1] = tested on: Streptococcus pyogenes C203; assay: protection of mice experimentally infected with S. pyogenes C203; type: in vivo; conditions: mice, mg/kg × 2, doses given 1 and 4 hours postinfection, read-out: ED50
Method: The formula 1 compounds have shown in vivo antimicrobial activity against experimentally-induced infections in laboratory animals. When two doses of test compound were administered to mice experimentally infected with S. pyrogenes C203, the activity observed was measured as an ED50 value [effective dose in mg/kg to protect 50% of the test animals: see Warren Wick, et al., J. Bacteriol. 81, 233-235 (1961)].
^a mg/kg × 2; doses given 1 and 4 hours postinfection

Mycoplasma hyorhinis 29E = assay: broth-dilution microtiter MIC test; type: cell-based; conditions: Mycoplasma, 29E; broth-dilution microtiter; read-out: MIC
Method: (§1) The MIC's in Table III were determined by standard agar-dilution assays. The MIC's in Table IV were obtained using conventional brothdilution microtiter tests.

[2] = tested on: Pasteurella hemolytica 41D; assay: broth-dilution microtiter MIC test; type: cell-based; conditions: Pasteurella, 41D
Method: as §1

[3] = tested on: Pasteurella multocida 60A; assay: broth-dilution microtiter MIC test; type: cell-based; conditions: Pasteurella multocida, 60A
Method: as §1

Streptococcus sp. 19F = assay: broth-dilution microtiter MIC test; type: cell-based; conditions: Streptococcus, SP.19F; broth-dilution microtiter; read-out: MIC
Method: as §1

[4] = tested on: Bordetella bronchiseptica; assay: broth-dilution microtiter MIC test; type: cell-based; conditions: Bordetella bronchiseptica
Method: as §1

[5] = tested on: Mycoplasma gallisepticum 29C; assay: broth-dilution microtiter MIC test; type: cell-based; conditions: Mycoplasmoides gallisepticum, 29C; broth-dilution microtiter; read-out: MIC
Method: as §1

[6] = tested on: Pasteurella hemolytica 23C; assay: broth-dilution microtiter MIC test; type: cell-based; conditions: Pasteurella, 23C
Method: as §1

Mycoplasma synoviae 40A = assay: broth-dilution microtiter MIC test; type: cell-based; conditions: Mycoplasmopsis synoviae, 40A; broth-dilution microtiter; read-out: MIC
Method: as §1

[7] = tested on: Pasteurella multocida 40G; assay: broth-dilution microtiter MIC test; type: cell-based; conditions: Pasteurella multocida, 40G
Method: as §1

[8] = tested on: Staphylococcus aureus 19C; assay: broth-dilution microtiter MIC test; type: cell-based; conditions: Staphylococcus aureus, 19C; broth-dilution microtiter; read-out: MIC
Method: as §1

[9] = tested on: Pasteurella multocida 68C; assay: broth-dilution microtiter MIC test; type: cell-based; conditions: Pasteurella multocida, 68C
Method: as §1

[10] = tested on: Mycoplasma gallisepticum 36H; assay: broth-dilution microtiter MIC test; type: cell-based; conditions: Mycoplasmoides gallisepticum, 36H
Method: as §1

[11] = tested on: Mycoplasma gallisepticum 15E; assay: broth-dilution microtiter MIC test; type: cell-based; conditions: Mycoplasmoides gallisepticum, 15E
Method: as §1

[12] = tested on: Pasteurella multocida 17E; assay: broth-dilution microtiter MIC test; type: cell-based; conditions: Pasteurella multocida, 17E
Method: as §1

[13] = tested on: Pasteurella multocida 22A; assay: broth-dilution microtiter MIC test; type: cell-based; conditions: Pasteurella multocida, 22A
Method: as §1

[14] = tested on: Pasteurella hemolytica 22C; assay: broth-dilution microtiter MIC test; type: cell-based; conditions: Pasteurella, 22C
Method: as §1

Escherichia coli EC14 = assay: standard agar-dilution MIC assay; type: cell-based
Method: as §1

[15] = tested on: Streptococcus Group D 9960; assay: standard agar-dilution MIC assay; type: cell-based; conditions: GROUPD9960, read-out: MIC
Method: as §1

[16] = tested on: Staphylococcus aureus V41; assay: standard agar-dilution MIC assay; type: cell-based; conditions: Staphylococcus aureus, V41; agar-dilution; Penicillin-resistant strain; read-out: MIC
Method: as §1

[17] = tested on: Staphylococcus aureus X400; assay: standard agar-dilution MIC assay; type: cell-based; conditions: Staphylococcus aureus, X400
Method: as §1

[18] = tested on: Staphylococcus aureus X1.1; assay: standard agar-dilution MIC assay; type: cell-based; conditions: Staphylococcus aureus, X1.1; agar-dilution; read-out: MIC
Method: as §1

[19] = tested on: Staphylococcus epidermidis EP12; assay: standard agar-dilution MIC assay; type: cell-based; conditions: agar-dilution, read-out: MIC
Method: as §1

[20] = tested on: Klebsiella pneumoniae X68; assay: standard agar-dilution MIC assay; type: cell-based; conditions: Klebsiella pneumoniae, X68
Method: as §1

[21] = tested on: Haemophilus influenzae 76; assay: standard agar-dilution MIC assay; type: cell-based; conditions: Haemophilus influenzae, 76
Method: as §1

[22] = tested on: Haemophilus influenzae C.L.; assay: standard agar-dilution MIC assay; type: cell-based; conditions: Haemophilus influenzae; agar-dilution; Ampicillin-sensitive strain; read-out: MIC
Method: as §1

[23] = tested on: Pseudomonas aeruginosa X239; assay: standard agar-dilution MIC assay; type: cell-based; conditions: Pseudomonas aeruginosa, X239
Method: as §1

[24] = tested on: Streptococcus Group D X66; assay: standard agar-dilution MIC assay; type: cell-based; conditions: read-out: MIC
Method: as §1

[25] = tested on: Staphylococcus epidermidis EPI1; assay: standard agar-dilution MIC assay; type: cell-based; conditions: Staphylococcus epidermidis, EPI1; agar-dilution; read-out: MIC
Method: as §1

[26] = tested on: Streptococcus pyogenes C203; assay: standard agar-dilution MIC assay; type: cell-based; conditions: Streptococcus pyogenes, C203
Method: as §1

[27] = tested on: Staphylococcus aureus S13E; assay: microbe, parasite or virus in culture; type: cell-based; conditions: Staphylococcus aureus, S13E
Method: as §1

[28] = tested on: Streptococcus pneumoniae Park I; assay: microbe, parasite or virus in culture; type: cell-based; conditions: Streptococcus pneumoniae; agar-dilution; read-out: MIC
Method: as §1

`CCC1OC(=O)CC(O)C(C)C(OC2OC(C)C(OC3CC(C)(O)C(O)C(C)O3)C(N(C)C)C2OC(C)=O)C(CC=O)CC(C)C(=O)C=CC(C)=CC1COC1OC(C)C(OC(C)=O)C(O)C1OC` (stereo not drawn) [Compound 1, 2',4'"-Di-O-acetyl-macrocin] was tested. Which ED50 ([1]; C203, Oral) did it give?
Its ED50 is 43.5 mg/kg.

What about the ED50 ([1]; C203, sc, Subcutaneous) of the same compound?
Its ED50 is 6.6 mg/kg.

What about the MIC (Mycoplasma hyorhinis 29E) of the same compound?
The MIC was 25 µg/mL (≈ 25.4 µM).

What about the MIC [2] of the same compound?
Its MIC is > 50 µg/mL.

What about the MIC [3] of the same compound?
Its MIC is > 50 µg/mL.

What about the MIC (Streptococcus sp. 19F) of the same compound?
The MIC was 3.12 µg/mL (≈ 3.16 µM).

What about the MIC [4] of the same compound?
Its MIC is > 50 µg/mL.

What about the MIC [5] of the same compound?
Its MIC is 0.78 µg/mL (≈ 0.791 µM).

What about the MIC [6] of the same compound?
Its MIC is > 50 µg/mL.

And the MIC (Mycoplasma synoviae 40A)?
Its MIC is 1.56 µg/mL (≈ 1.58 µM).

And the MIC [7]?
The MIC was > 50 µg/mL.

What about the MIC [8] of the same compound?
Its MIC is 6.25 µg/mL (≈ 6.34 µM).

What about the MIC [9] of the same compound?
Its MIC is > 50 µg/mL.

And the MIC [10]?
Its MIC is > 50 µg/mL.

What about the MIC [11] of the same compound?
The MIC was > 50 µg/mL.

What about the MIC [12] of the same compound?
Its MIC is > 50 µg/mL.

And the MIC [13]?
Its MIC is > 50 µg/mL.

What about the MIC [14] of the same compound?
Its MIC is > 50 µg/mL.

And the MIC (Escherichia coli EC14)?
The MIC was > 128 µg/mL.

And the MIC [15]?
Its MIC is 4 µg/mL (≈ 4.06 µM).

And the MIC [16]?
The MIC was 2 µg/mL (≈ 2.03 µM).

What about the MIC [17] of the same compound?
The MIC was 4 µg/mL (≈ 4.06 µM).

And the MIC [18]?
Its MIC is 2 µg/mL (≈ 2.03 µM).

What about the MIC [19] of the same compound?
The MIC was 2 µg/mL (≈ 2.03 µM).

What about the MIC [20] of the same compound?
Its MIC is > 128 µg/mL.

And the MIC [21]?
The MIC was 1 µg/mL (≈ 1.01 µM).

And the MIC [22]?
The MIC was 64 µg/mL (≈ 64.9 µM).

And the MIC [23]?
The MIC was > 128 µg/mL.

And the MIC [24]?
Its MIC is 4 µg/mL (≈ 4.06 µM).

What about the MIC [25] of the same compound?
The MIC was 2 µg/mL (≈ 2.03 µM).

What about the MIC [26] of the same compound?
Its MIC is 1 µg/mL (≈ 1.01 µM).

And the MIC [27]?
Its MIC is 4 µg/mL (≈ 4.06 µM).

And the MIC [28]?
The MIC was 0.5 µg/mL (≈ 0.507 µM).
